According to paper PMC12051030, “Identification of inhibitors of the Salmonella FraB deglycase, a drug target” (FEBS Open Bio, 2025):
Like-named read-outs stand apart in the source and are kept apart here.

Molecular target: His6‐FraB (Salmonella FraB deglycase) (Salmonella enterica subsp. enterica serovar Typhimurium, UniProt Q8ZLD0)
Test: FraB-G6PD coupled assay, Michaelis–Menten analysis for K I and mode of inhibition
Assay type: biochemical
Conditions: for change of IC50 values with increasing [S]/K m: 'this trend' = IC50 does not vary with [S]/K m, change evident only from 0.2 to 1.6× [S]/K m; for slope in plots of 1/IC50 vs. v o/V max: Fig. S12; for K IU/K IC ratio: average (±SE), from 1/IC50 versus v o/V max plots; for mode of inhibition: kinetic analyses (Lineweaver‐Burk, α′ vs [I], IC50 vs [S]/K m, 1/IC50 vs v o/V max)
Experimental: To determine the K I of each inhibitor, 29 μL of master mix was added to two rows of a 384‐well Greiner plate, using a single‐channel pipette, and incubated at 20 °C for 20 min. A 12‐channel pipette was then used to transfer and mix 1 μL of varying [6‐P‐F‐Asp] to all 48 wells. The final reaction (30 μL) consisted of 25 mM HEPES pH 8.0 at 20 °C, 5 mM MgCl2, 0.1 mM EGTA, 0.5 mM NAD^+, 1 mU G6PD, 100 nM His6‐FraB, varying (6‐P‐F‐Asp) (between 8 and 12 concentrations), and varying [inhibitor] (between three and five concentrations) in 10% (v/v) DMSO. NADH fluorescence was monitored every 10 s for 10 min total on a SPARK® multi‐mode multiplate reader (Tecan), as described above, and plotted against time. Slopes of the linear range of each curve were converted to initial velocities, as described above, that were then plotted against [6‐P‐F‐Asp]. A hyperbolic curve was then fitted to the data to obtain the k cat and K m values according to the formula: v o = (V max × [S])/(K m + [S]).
To determine the correlation between the observed and expected initial velocities (Fig. S5A), these values were exported from Kaleidagraph, plotted against one another, and a curve was fit using the formula: y = mx + b. The differences between observed and expected initial velocities (residuals) were then depicted as box‐and‐whisker plots (Fig. S5B). Lineweaver‐Burk plots were generated by graphing 1/v o versus 1/[S] and curves were fit to the data with Kaleidagraph using the formula: 1/v o = (Km/V max).(1/[S]) + (1/V max). The k cat and K m parameters were then converted into α′ values by dividing the k cat of the control (no inhibitor) by either itself (α′= 1) or the k cat of test samples with variable [inhibitor]. Those α′ values were plotted against [inhibitor] and K I values were determined from the equation α = 1 + [I]/K I.
The initial velocities used to generate the Michaelis–Menten plots were also employed to obtain the IC50 vs [S]/K m plots. For a given [S], initial velocities were converted into relative activities and plotted versus [inhibitor]. […] The IC50 values determined from the IC50 vs [S]/K m plots were then used to plot 1/IC50 versus v o/V max. A curve was fit to the data using the formula: y = mx + b. The Y‐intercept of the 1/IC50 versus v o/V max plot is equal to 1/K IC, and the slope, for mixed inhibitors, is equal to 1/K IU – 1/K IC. […] Data analyses were performed as described above (see Tables S1–S7 for curve‐fit errors and goodness‐of‐fit values).

[1] = Trial 1, 6-P-F-Asp 7.38 µM, S/Km 0.175714, unit from Fig. S11 axis, read-out: IC50 (IC50 versus [S]/Km plots)
[2] = Trial 1, 6-P-F-Asp 15.7 µM, S/Km 0.37381, unit from Fig. S11 axis, read-out: IC50 (IC50 versus [S]/Km plots)
[3] = Trial 1, 6-P-F-Asp 31.3 µM, S/Km 0.745238, unit from Fig. S11 axis, read-out: IC50 (IC50 versus [S]/Km plots)
[4] = Trial 1, 6-P-F-Asp 62.5 µM, S/Km 1.488095, unit from Fig. S11 axis, read-out: IC50 (IC50 versus [S]/Km plots)
[5] = Trial 1, 6-P-F-Asp 125 µM, S/Km 2.97619, unit from Fig. S11 axis, read-out: IC50 (IC50 versus [S]/Km plots)
[6] = Trial 1, 6-P-F-Asp 250 µM, S/Km 5.952381, unit from Fig. S11 axis, read-out: IC50 (IC50 versus [S]/Km plots)
[7] = Trial 1, 6-P-F-Asp 500 µM, S/Km 11.90476, unit from Fig. S11 axis, read-out: IC50 (IC50 versus [S]/Km plots)
[8] = Trial 1, 6-P-F-Asp 750 µM, S/Km 17.85714, unit from Fig. S11 axis, read-out: IC50 (IC50 versus [S]/Km plots)
[9] = Trial 1, 6-P-F-Asp 1000 µM, S/Km 23.80952, unit from Fig. S11 axis, read-out: IC50 (IC50 versus [S]/Km plots)
[10] = Trial 1, 6-P-F-Asp 2000 µM, S/Km 47.61905, unit from Fig. S11 axis, read-out: IC50 (IC50 versus [S]/Km plots)
[11] = Trial 1, 6-P-F-Asp 3000 µM, S/Km 71.42857, unit from Fig. S11 axis, read-out: IC50 (IC50 versus [S]/Km plots)
[12] = Trial 2, 6-P-F-Asp 7.38 µM, S/Km 0.175714, unit from Fig. S11 axis, read-out: IC50 (IC50 versus [S]/Km plots)
[13] = Trial 2, 6-P-F-Asp 15.7 µM, S/Km 0.37381, unit from Fig. S11 axis, read-out: IC50 (IC50 versus [S]/Km plots)
[14] = Trial 2, 6-P-F-Asp 31.3 µM, S/Km 0.745238, unit from Fig. S11 axis, read-out: IC50 (IC50 versus [S]/Km plots)
[15] = Trial 2, 6-P-F-Asp 62.5 µM, S/Km 1.488095, unit from Fig. S11 axis, read-out: IC50 (IC50 versus [S]/Km plots)
[16] = Trial 2, 6-P-F-Asp 125 µM, S/Km 2.97619, unit from Fig. S11 axis, read-out: IC50 (IC50 versus [S]/Km plots)
[17] = Trial 2, 6-P-F-Asp 250 µM, S/Km 5.952381, unit from Fig. S11 axis, read-out: IC50 (IC50 versus [S]/Km plots)
[18] = Trial 2, 6-P-F-Asp 500 µM, S/Km 11.90476, unit from Fig. S11 axis, read-out: IC50 (IC50 versus [S]/Km plots)
[19] = Trial 2, 6-P-F-Asp 750 µM, S/Km 17.85714, unit from Fig. S11 axis, read-out: IC50 (IC50 versus [S]/Km plots)
[20] = Trial 2, 6-P-F-Asp 1000 µM, S/Km 23.80952, unit from Fig. S11 axis, read-out: IC50 (IC50 versus [S]/Km plots)
[21] = Trial 2, 6-P-F-Asp 2000 µM, S/Km 47.61905, unit from Fig. S11 axis, read-out: IC50 (IC50 versus [S]/Km plots)
[22] = Trial 2, 6-P-F-Asp 3000 µM, S/Km 71.42857, unit from Fig. S11 axis, read-out: IC50 (IC50 versus [S]/Km plots)
[23] = from Michaelis–Menten analysis of FraB at different inhibitor concentrations, average and standard error from two measurements, read-out: K I

His6‐FraB (Salmonella FraB deglycase), sequence (Q8ZLD0 entry or part of it): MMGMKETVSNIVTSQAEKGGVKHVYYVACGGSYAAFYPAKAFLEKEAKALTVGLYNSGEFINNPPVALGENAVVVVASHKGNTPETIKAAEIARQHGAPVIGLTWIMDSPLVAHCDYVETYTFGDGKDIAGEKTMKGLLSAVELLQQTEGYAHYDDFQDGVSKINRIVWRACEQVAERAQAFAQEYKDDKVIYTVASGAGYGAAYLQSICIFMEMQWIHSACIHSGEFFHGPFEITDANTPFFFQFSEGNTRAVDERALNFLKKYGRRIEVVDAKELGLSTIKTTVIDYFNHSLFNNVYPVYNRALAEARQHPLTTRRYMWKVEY

Compound | change of IC50 values with increasing [S]/K m | slope in plots of 1/IC50 vs. v o/V max | IC50 [2] | IC50 [3] | IC50 [4] | IC50 [5] | IC50 [6] | IC50 [7] | IC50 [8] | IC50 [9] | IC50 [10] | IC50 [11] | IC50 [12] | IC50 [13] | IC50 [14] | IC50 [15] | IC50 [16] | IC50 [17] | IC50 [18] | IC50 [19] | also measured
O=c1sn(-c2ccccc2C(F)(F)F)c(=O)n1CC1CC1 [1524:G12, 4‐(cyclopropylmethyl)‐2‐[2‐(trifluoromethyl)phenyl]‐1,2,4‐thiadiazolidine‐3,5‐dione] | exhibit this trend | no | 1.39 µM | 1.54 µM | 1.44 µM | 1.55 µM | 1.47 µM | 1.59 µM | 1.51 µM | 1.36 µM | 1.44 µM | 1.65 µM | 1.91 µM | 1.49 µM | 1.54 µM | 1.64 µM | 1.36 µM | 1.27 µM | 1.41 µM | 1.42 µM | IC50 [1]: 1.08 µM; IC50 [20]: 1.44 µM; IC50 [21]: 1.37 µM; IC50 [22]: 1.66 µM; K IU/K IC ratio: 0.9 ± 0.1; Ki [23]: 1 µM; mode of inhibition: pure noncompetitive inhibitors
CC(C)Cc1cc(-c2nn3c(-c4ccccc4Cl)nnc3s2)n[nH]1 [3470:A09, 3‐(2‐chlorophenyl)‐6‐[5‐(2‐methylpropyl)‐1H‐pyrazol‐3‐yl]‐[1,2,4]triazolo[3,4‐b][1,3,4]thiadiazole] | modest decrease | weakly positive | 29.3 µM | 18.8 µM | 20.5 µM | 20.2 µM | 20.6 µM | 19.4 µM | 19.5 µM | 21.3 µM | 22.7 µM | 23.2 µM | 19 µM | 13.6 µM | 12.4 µM | 12.6 µM | 11.4 µM | 11.6 µM | 11 µM | 10.9 µM | IC50 [20]: 11.3 µM; IC50 [21]: 11.1 µM; IC50 [22]: 15.3 µM; Ki [23]: 10.5 ± 3.5 µM; Ki (independent trial shown in Fig. S11 panels A-L, read-out: KI from α′ vs [I] plot): 7 µM; mode of inhibition: mixed‐type uncompetitive; IC50 (single trial shown in Fig. 5, read-out: IC50, mean and standard deviation of all IC50 values in IC50 vs [S]/Km plot): 13 ± 3 µM; Ki (single trial shown in Fig. 5, read-out: KI from α′ vs [I] plot): 14 µM
Cc1cccc(Cl)c1-n1sc(=O)n(CC2CC2)c1=O [1524:E12, 2‐(2‐chloro‐6‐methylphenyl)‐4‐(cyclopropylmethyl)‐1,2,4‐thiadiazolidine‐3,5‐dione] | exhibit this trend | no | 4.4596 µM | 6.2505 µM | 5.0417 µM | 4.4301 µM | 4.497 µM | 4.5819 µM | 4.2959 µM | 4.7019 µM | 4.852 µM | 5.5036 µM | 4.2249 µM | 5.1146 µM | 4.8438 µM | 5.1187 µM | 5.0178 µM | 5.2509 µM | 4.9663 µM | 4.9173 µM | IC50 [1]: 5.182 µM; IC50 [20]: 5.0782 µM; IC50 [21]: 5.2035 µM; IC50 [22]: 5.7824 µM; K IU/K IC ratio: 0.95 ± 0.05; Ki [23]: 4 µM; mode of inhibition: pure noncompetitive inhibitors; IC50, mean and standard deviation of all IC50 values in IC50 vs [S]/Km plot (trial shown in Fig. S11 panels M-X): 5 ± 0.4 µM; IC50, mean and standard deviation of all IC50 values in IC50 vs [S]/Km plot (trial shown in Fig. S11 panels Y-AJ): 5 ± 0.6 µM
c1ccc(-c2nnc3sc(C4COc5ccccc5O4)nn23)nc1 (stereo not drawn) [3469:F02, 6‐(2,3‐dihydro‐1,4‐benzodioxin‐3‐yl)‐3‐pyridin‐2‐yl‐[1,2,4]triazolo[3,4‐b][1,3,4]thiadiazole] | slight increase | weakly negative | 27.6 µM | 33.5 µM | 27.9 µM | 34 µM | 31.8 µM | 32.7 µM | 33.7 µM | 33.9 µM | 36.1 µM | 52.6 µM | 41.2 µM | 41.3 µM | 51.7 µM | 51.3 µM | 49.2 µM | 47.8 µM | 46.1 µM | 45.4 µM | IC50 [1]: 18.9 µM; IC50 [20]: 48.9 µM; IC50 [21]: 59.2 µM; IC50 [22]: 67.2 µM; K IU/K IC ratio: 1.35 ± 0.25; Ki [23]: 28.5 ± 3.5 µM; mode of inhibition: mixed‐type competitive; IC50 (trial shown in Fig. S11 panels M-X, read-out: IC50, mean and standard deviation of all IC50 values in IC50 vs [S]/Km plot): 50 ± 8 µM; Ki (trial shown in Fig. S11 panels M-X, read-out: KI from α′ vs [I] plot): 25 µM; Ki (trial shown in Fig. S11 panels Y-AJ, read-out: KI from α′ vs [I] plot): 32 µM
